Reference: patent publication US20260138988A1, “Spiropyrrolidine Derived Antiviral Agents” (Enanta Pharmaceuticals, Inc., priority 2021, published 2026)

target: SARS-CoV-2 3CL-protease (Severe acute respiratory syndrome coronavirus 2, UniProt P0DTD1); test: SARS-CoV-2 3C-Like (3CL) Protease Fluorescence Assay (FRET); assay type: biochemical; conditions: IC50, SARS-CoV-2 3CL-protease 10 nM, test compounds 0-10 μM, duplicate

| Structure (SMILES) | IC50 [µM] |
| --- | --- |
| C[C@H](NC(=O)C(F)(F)C(F)(F)C(F)(F)F)C(=O)N(C)[C@@H](CC1CC1)C(=O)N1C[C@]2(C[C@H]1C#N)C(=O)Nc1ccccc12 [Example 206] | < 0.1 |
| C[C@H](NC(=O)C(F)(F)C(F)(F)F)C(=O)N(C)[C@@H](CC1CC1)C(=O)N1C[C@]2(C[C@H]1C#N)C(=O)N(COP(=O)(OC(C)(C)C)OC(C)(C)C)c1ccccc12 [Example 351] | < 0.1 |

same assay, conditions: SARS-CoV-2 3CL-protease 10 nM, test compounds 0-10 μM, duplicate, read-out: IC50

| Structure (SMILES) | IC50 [µM] |
| --- | --- |
| CN(C(=O)[C@@H]1CC[C@H](C(F)(F)F)N1C)[C@@H](CC(C)(C)C)C(=O)N1C[C@]2(C[C@H]1C#N)C(=O)Nc1ccccc12 [Example 234] | < 0.1 |
| CC(C)(C)C[C@H](NC(=O)[C@H](CC1CC1)NC(=O)C1CCCCC1)C(=O)N1C[C@]2(C[C@H]1C#N)C(=O)Nc1ccccc12 [Example 327] | < 0.1 |
| C[C@@H](NC(=O)OCc1ccccc1)C(=O)N(C)[C@@H](CC(C)(C)C)C(=O)N1C[C@]2(C[C@H]1C#N)C(=O)Nc1ccccc12 [Example 307] | < 0.1 |
| C[C@H](NC(=O)C(F)(F)C(F)(F)F)C(=O)N(C)[C@@H](CC(C)(C)C)C(=O)N1C[C@]2(C[C@H]1C#N)C(=O)N(Cl)c1ccc(Cl)cc12 [Example 172] | < 0.1 |
| CC(C)C[C@@H](C(=O)N1C[C@]2(C[C@H]1C#N)C(=O)Nc1ccc(Br)cc12)N(C)C(=O)[C@H](C)NC(=O)C(F)(F)C(F)(F)F [Example 169] | < 0.1 |
| CC(C)(C)C[C@H](NC(=O)[C@H](CC1CC1)NC(=O)C12CC3CC(CC(C3)C1)C2)C(=O)N1C[C@]2(C[C@H]1C#N)C(=O)Nc1ccccc12 [Example 319] | < 0.1 |
| CCN(C(=O)C(C)NC(=O)C12CC(C)(C1)C2)C(CC(C)C)C(=O)N1CC2(CC1C#N)C(=O)Nc1ccccc12 (stereo not drawn) [Example 367] | < 0.1 |
| CC(C)(C)C[C@H](NC(=O)[C@H](CC1CC1)NC(=O)C12CC(C)(C1)C2)C(=O)N1C[C@]2(C[C@H]1C#N)C(=O)Nc1ccccc12 [Example 317] | < 0.1 |
| CN1C[C@H](C(F)(F)F)C[C@H]1C(=O)N(C)[C@@H](CC(C)(C)C)C(=O)N1C[C@]2(C[C@H]1C#N)C(=O)Nc1ccccc12 [Example 230] | 0.1 to 1 |
| CC(C)C[C@@H](C(=O)N1C[C@]2(C[C@H]1C#N)C(=O)Nc1ccccc12)N(C)C(=O)[C@H](C)NC(=O)c1ccc2c(c1)OCC2 [Example 190] | < 0.1 |
| CC(=O)Nc1cccn([C@H](CC(C)C)C(=O)N2C[C@]3(C[C@H]2C#N)C(=O)Nc2ccccc23)c1=O [Example 358] | < 0.1 |
| CC(C)C[C@@H](C(=O)N1C[C@]2(C[C@H]1C#N)C(=O)Nc1ccccc12)N(C)C(=O)[C@@H]1CC[C@@H](c2ccc(F)cc2)N1C(C)C [Example 238] | < 0.1 |
| CC(C)[C@H](Nc1ccc(F)cc1)C(=O)N[C@@H](CC(C)(C)C)C(=O)N1C[C@]2(C[C@H]1C#N)C(=O)Nc1ccccc12 [Example 337] | 0.1 to 1 |
| CC(C)(C)C[C@H](NC(=O)[C@H](CC1CC1)NC(=O)c1cnn(-c2ccc(C(F)(F)F)cc2)c1)C(=O)N1C[C@]2(C[C@H]1C#N)C(=O)Nc1ccccc12 [Example 306] | < 0.1 |
| C[C@@H]1NC(=O)CCCCCCCc2ccc3c(c2)[C@@]2(C[C@@H](C#N)N(C2)C(=O)[C@H](CC(C)(C)C)NC1=O)C(=O)N3 [Example 376] | > 1 |
| C[C@H](Nc1ccc(F)cc1)C(=O)N[C@@H](CC(C)(C)C)C(=O)N1C[C@]2(C[C@H]1C#N)C(=O)Nc1ccccc12 [Example 336] | 0.1 to 1 |
| CN(C(=O)[C@@H]1C[C@H](c2ccccc2)CN1)[C@@H](CC(C)(C)C)C(=O)N1C[C@]2(C[C@H]1C#N)C(=O)Nc1ccccc12 [Example 231] | < 0.1 |
| CC(C)N1C[C@@H]2CCC[C@@H]2[C@H]1C(=O)N(C)[C@@H](CC(C)(C)C)C(=O)N1C[C@]2(C[C@H]1C#N)C(=O)Nc1ccccc12 [Example 181] | < 0.1 |
| CCN1[C@@H]2C[C@@H]2C[C@H]1C(=O)N(C)[C@@H](CC(C)C)C(=O)N1C[C@]2(C[C@H]1C#N)C(=O)Nc1ccccc12 [Example 261] | < 0.1 |
| CC(C)C[C@@H](C(=O)N1C[C@]2(C[C@H]1C#N)C(=O)Nc1ccccc12)N(C)C(=O)[C@H](C)NC(=O)C12CC(F)(C1)C2 [Example 278] | < 0.1 |
| CC(C)C(NC(=O)C(F)(F)F)C(=O)N1CC[C@H](c2ccccc2)[C@H]1C(=O)N1C[C@]2(C[C@H]1C#N)C(=O)Nc1ccccc12 (stereo partly drawn) [Example 344] | < 0.1 |
| C[C@H](NC(=O)c1cc(F)cc2ccccc12)C(=O)N(C)[C@@H](CC(C)(C)C)C(=O)N1C[C@]2(C[C@H]1C#N)C(=O)Nc1ccccc12 [Example 292] | < 0.1 |
| C[C@H](NC(=O)c1ccc(F)cc1)C(=O)N(C)[C@@H](Cc1ccccc1)C(=O)N1C[C@]2(C[C@H]1C#N)C(=O)Nc1ccccc12 [Example 270] | < 0.1 |
| CC(C)C[C@@H](C(=O)N1C[C@]2(C[C@H]1C#N)C(=O)Nc1ccccc12)N(C)C(=O)[C@H](C)NC(=O)C(C)C [Example 217] | < 0.1 |
| [2H]C([2H])([2H])N(C(=O)[C@H](C)NC(=O)C(F)(F)C(F)(F)F)[C@@H](CCCC)C(=O)N1C[C@]2(C[C@H]1C#N)C(=O)Nc1ccccc12 [Example 192] | < 0.1 |
| CN(C(=O)[C@H](CC1CC1)NC(=O)C(F)(F)C(F)(F)F)[C@@H](CC1CC1)C(=O)N1C[C@]2(C[C@H]1C#N)C(=O)Nc1ccccc12 [Example 347] | < 0.1 |

| Structure (SMILES) | IC50 [µM] |
| --- | --- |
| CC[C@H](NC(=O)C(F)(F)C(F)(F)F)C(=O)N(C)[C@@H](CC(C)C)C(=O)N1C[C@]2(C[C@H]1C#N)C(=O)Nc1ccccc12 [Example 200] | < 0.1 |
| C[C@H](NC(=O)OCc1ccccc1)C(=O)N[C@@H](CC(C)(C)C)C(=O)N1C[C@]2(C[C@H]1C#N)C(=O)Nc1ccccc12 [Example 227] | < 0.1 |
| CC(C)N1[C@H](C(=O)N(C)[C@@H](CC(C)(C)C)C(=O)N2C[C@]3(C[C@H]2C#N)C(=O)Nc2ccccc23)C[C@@H]2CCCC[C@@H]21 [Example 180] | < 0.1 |
| C[C@H](NC(=O)C(F)(F)C(F)(F)F)C(=O)N(C)[C@@H](CC1CC1)C(=O)N1C[C@]2(C[C@H]1C#N)C(=O)Nc1ccccc12 [Example 205] | < 0.1 |
| CC(C)C[C@@H](C(=O)N1C[C@]2(C[C@H]1C#N)C(=O)Nc1ccccc12)N(C)C(=O)[C@H](C)NC(=O)C1(F)CCCC1 [Example 143] | < 0.1 |
| CC(C)OC(=O)OCN1C(=O)[C@]2(C[C@@H](C#N)N(C(=O)[C@H](CC3CC3)N(C)C(=O)[C@H](C)NC(=O)C(F)(F)C(F)(F)F)C2)c2ccccc21 [Example 350] | 0.1 to 1 |
| CC(C)C[C@@H](C(=O)N1C[C@]2(C[C@H]1C#N)C(=O)Nc1ccccc12)N(C)C(=O)[C@H](C)NC(=O)c1cc2[nH]ccc2cc1F [Example 186] | < 0.1 |
| CCC(F)(F)C(=O)N[C@@H](C)C(=O)N(C)[C@@H](CC(C)C)C(=O)N1C[C@]2(C[C@H]1C#N)C(=O)Nc1ccccc12 [Example 271] | < 0.1 |
| CC(C)(C)C[C@H](NC(=O)[C@H](CC1CC1)NC(=O)c1ccc(F)c(F)c1)C(=O)N1C[C@]2(C[C@H]1C#N)C(=O)Nc1ccccc12 [Example 326] | < 0.1 |
| CC(C)(C)C[C@H](NC(=O)[C@H](CC1CC1)NC(=O)c1cc(F)c(F)c(F)c1)C(=O)N1C[C@]2(C[C@H]1C#N)C(=O)Nc1ccccc12 [Example 312] | < 0.1 |
| CC(C)C[C@@H](C(=O)N1C[C@]2(C[C@H]1C#N)C(=O)Nc1ccccc12)n1cccc(NS(=O)(=O)C2CC2)c1=O [Example 353] | < 0.1 |
| CC(C)C[C@@H](C(=O)N1C[C@]2(C[C@H]1C#N)C(=O)Nc1ccccc12)N(C)C(=O)[C@H](C)NC(=O)c1ccc(C(F)(F)F)cc1C(F)(F)F [Example 291] | < 0.1 |
| CC(C)(C)C[C@H](NC(=O)C(F)(F)F)C(=O)N[C@@H](CC(C)(C)C)C(=O)N1C[C@]2(C[C@H]1C#N)C(=O)Nc1ccccc12 [Example 226] | < 0.1 |
| COCCOCCC(=O)N[C@@H](C)C(=O)N(C)[C@@H](CC(C)(C)C)C(=O)N1C[C@]2(C[C@H]1C#N)C(=O)Nc1ccccc12 [Example 263] | < 0.1 |
| CC(C)C[C@@H](C(=O)N1C[C@]2(C[C@H]1C#N)C(=O)Nc1ccccc12)N(C)C(=O)[C@H](C)NC(=O)CC(F)(F)F [Example 266] | < 0.1 |
| C[C@H](NC(=O)c1cc(F)c(F)c(F)c1)C(=O)N(C)[C@@H](CC(C)(C)C)C(=O)N1C[C@]2(C[C@H]1C#N)C(=O)Nc1ccccc12 [Example 214] | < 0.1 |
| CC(C)C[C@@H](C(=O)N1C[C@]2(C[C@H]1C#N)C(=O)Nc1ccccc12)N(C)C(=O)[C@H](C)NC(=O)c1cccc2cc(F)ccc12 [Example 295] | < 0.1 |
| CC(C)(C)C[C@H](NC(=O)[C@H](CC1CC1)NS(=O)(=O)c1ccc(F)cc1)C(=O)N1C[C@]2(C[C@H]1C#N)C(=O)Nc1ccccc12 [Example 313] | < 0.1 |
| CC(C)(C)C[C@H](NC(=O)[C@H](CC1CC1)NC(=O)c1c[nH]cn1)C(=O)N1C[C@]2(C[C@H]1C#N)C(=O)Nc1ccccc12 [Example 325] | 0.1 to 1 |
| C[C@H](NC(=O)c1ccc(F)cc1)C(=O)N(C)[C@@H](CC(C)(C)C)C(=O)N1C[C@]2(C[C@H]1C#N)C(=O)Nc1ccccc12 [Example 224] | < 0.1 |
| CC(N[C@@H](C)C(=O)N(C)[C@@H](CC(C)(C)C)C(=O)N1C[C@]2(C[C@H]1C#N)C(=O)Nc1ccccc12)C(F)(F)F (stereo partly drawn) [Example 299] | < 0.1 |
| CC(C)C[C@@H](C(=O)N1C[C@]2(C[C@H]1C#N)C(=O)Nc1ccccc12)N(C)C(=O)[C@H](C)NC(=O)c1cccc(-c2ccc(C(F)(F)F)cc2)c1 [Example 147] | < 0.1 |
| C[C@H](NC(=O)C(C)(C)C)C(=O)N(C)[C@@H](CC(C)(C)C)C(=O)N1C[C@]2(C[C@H]1C#N)C(=O)Nc1ccccc12 [Example 209] | < 0.1 |
| CC(C)C[C@@H](C(=O)N1C[C@]2(C[C@H]1C#N)C(=O)Nc1ccccc12)n1cccc(NC(=O)C2CC2)c1=O [Example 357] | < 0.1 |
| CC(C)(C)C[C@H](NC(=O)[C@H](CC1CC1)NS(=O)(=O)c1cnn(-c2ccc(F)cc2)c1)C(=O)N1C[C@]2(C[C@H]1C#N)C(=O)Nc1ccccc12 [Example 314] | 0.1 to 1 |
| C[C@H](NC(=O)c1ccc(-c2ccccc2)cc1)C(=O)N(C)[C@@H](CC(C)(C)C)C(=O)N1C[C@]2(C[C@H]1C#N)C(=O)Nc1ccccc12 [Example 289] | < 0.1 |
